From US9808448B2, “Pharmaceutical compounds and use of same in cancer and tauopathies” (THE REGENTS OF THE UNIVERSITY OF MICHIGAN, priority 2013, dated 2017)

Assays:
human Hsc70 = target: T1, human Hsc70 (Homo sapiens, UniProt P11142); assay: Binding of tau to immobilized human Hsc70; type: biochemical
T1 construct: made in house
Method: (§1) Next, the effect of chaperone functions by binding of YM-08 to Hsp70 was investigated. […] This profile is shared with other allosteric Hsp70 inhibitors. As another test of chaperone function, the effects of the compounds on the binding of Hsp70 to a misfolded protein were measured. In previous work, MKT-077 stabilized the interaction between prokaryotic Hsp70 (DnaK) and denatured luciferase. Briefly, this assay involves immobilizing unfolded luciferase in microtiter plates and measuring binding to DnaK. […] To explore whether YM-08 might also enhance binding of Hsp70 to a more physiologically relevant substrate, binding of tau to immobilized human Hsc70 was measured.
Binding of prokaryotic Hsp70 (DnaK) to denatured luciferase was measured as previously described, in e.g., Miyata, et al., J. Biomol. Screen, 15:1211-1219 (2010). Briefly, firefly luciferase (0.2 mg/mL) was proteolyzed with trypsin and immobilized in 96-well microtiter plates. After washing, the binding of luciferase to DnaK (500 nM) was measured using an anti-DnaK antibody and HRP secondary antibody. A similar strategy was used to monitor binding of human Hsc70 to tau, as previously described in Thompson, et al., ACS Chem. Biol., 7:1677-1686 (2012).

[1] = target: yeast Hsp70 (Ssa1p) and Hlj1p (Saccharomyces cerevisiae, UniProt P10591); assay: Single turnover ATPase assay; type: biochemical
Method: as §1
Single turnover ATPase assays were performed as previously described in, e.g., Fewell, et al., J. Biol. Chem., 279:51131-51140 (2004), and Chiang, et al., Bioorg. Med. Chem., 17:1527-1533 (2009). Briefly, the yeast Hsp70, Ssa1p (about 0.2 μM), was prebound to α-[32P]ATP. The hydrolysis of ATP in the presence or absence of an equimolar amount of Hlj1 was measured by monitoring the generation of α-[32P]ADP by thin layer chromatography (TLC).

Chain of yeast Hsp70 (Ssa1p) and Hlj1p (P10591 whole entry): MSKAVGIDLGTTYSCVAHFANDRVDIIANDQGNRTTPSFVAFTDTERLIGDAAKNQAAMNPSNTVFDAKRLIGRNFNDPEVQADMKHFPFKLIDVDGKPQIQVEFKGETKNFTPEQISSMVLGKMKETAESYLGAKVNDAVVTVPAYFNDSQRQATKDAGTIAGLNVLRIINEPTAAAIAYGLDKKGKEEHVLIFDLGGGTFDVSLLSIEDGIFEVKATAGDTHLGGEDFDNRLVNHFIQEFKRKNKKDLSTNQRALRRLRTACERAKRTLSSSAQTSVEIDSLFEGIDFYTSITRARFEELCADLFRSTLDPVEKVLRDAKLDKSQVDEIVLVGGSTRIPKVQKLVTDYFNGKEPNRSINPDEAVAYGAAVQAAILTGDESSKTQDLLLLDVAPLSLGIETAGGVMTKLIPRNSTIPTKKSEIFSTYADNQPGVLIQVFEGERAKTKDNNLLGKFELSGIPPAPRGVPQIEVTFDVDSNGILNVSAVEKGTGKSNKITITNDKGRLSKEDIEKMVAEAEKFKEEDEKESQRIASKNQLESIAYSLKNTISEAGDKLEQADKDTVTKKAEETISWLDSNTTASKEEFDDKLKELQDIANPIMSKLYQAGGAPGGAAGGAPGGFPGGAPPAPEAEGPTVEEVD
T1 sequence (P11142 2-646): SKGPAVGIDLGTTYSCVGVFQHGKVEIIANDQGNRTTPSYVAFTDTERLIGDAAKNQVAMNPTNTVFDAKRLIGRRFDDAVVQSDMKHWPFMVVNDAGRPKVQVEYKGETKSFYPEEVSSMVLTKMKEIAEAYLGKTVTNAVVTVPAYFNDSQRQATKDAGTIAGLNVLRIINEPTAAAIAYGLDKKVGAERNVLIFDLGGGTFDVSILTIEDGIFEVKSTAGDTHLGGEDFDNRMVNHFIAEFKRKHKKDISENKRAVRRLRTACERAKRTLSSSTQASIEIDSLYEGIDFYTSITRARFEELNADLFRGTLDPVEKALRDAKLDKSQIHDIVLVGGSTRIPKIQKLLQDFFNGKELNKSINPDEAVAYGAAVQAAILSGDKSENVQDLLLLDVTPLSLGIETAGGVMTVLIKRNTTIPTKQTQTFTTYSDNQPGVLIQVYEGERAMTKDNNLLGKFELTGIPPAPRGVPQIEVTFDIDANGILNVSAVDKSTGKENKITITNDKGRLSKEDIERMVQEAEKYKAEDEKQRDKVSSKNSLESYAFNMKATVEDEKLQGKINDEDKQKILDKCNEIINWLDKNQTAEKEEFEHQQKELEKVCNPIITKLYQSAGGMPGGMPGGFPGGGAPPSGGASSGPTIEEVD

## CCn1c(=O)/c(=C2\Sc3ccccc3N2C)s/c1=C\c1ccccn1 [YM-08, (2Z,5E)-3-ethyl-5-(3-methylbenzo[d]thiazol-2(3H)-ylidene)-2-(pyridin-2-ylmethylene)thiazolidin-4-one]
Human Hsc70
  affinity of chaperone for tau substrate: enhanced the affinity
[1]; Ssa1 plus Hlj1
  ATP turnover, Hlj1-stimulated ATPase activity: partially inhibited
[1]; without Hlj1
  intrinsic ATPase activity of Ssa1: minimal effect
